Source: US5786447A, “Opioid peptide analogs” (Astra AB, priority 1994, dated 1998)
Positions of bridges follow the written chain, without caps; N, C: chain ends. Non-standard residues stand in square brackets, D forms with d. Residues, ends and D or L forms follow the SMILES beside them. 2Nal = N[C@@H](Cc1ccc2ccccc2c1)C(=O)O; Dmt = Cc1cc(O)cc(C)c1C[C@H](N)C(=O)O; dOrn = NCCC[C@@H](N)C(=O)O; NMeAib = CNC(C)(C)C(=O)O; Sar = CNCC(=O)O

Experiments:
δ opioid receptors = biological target: T1, δ opioid receptors (Mus musculus, UniProt P32300); assay: MVD assay: inhibition of electrically evoked contractions of the mouse vas deferens (δ antagonist Ke); type: cell-based; conditions: means of 3-8 determinations ± SEM; for Ke in the MVD assay, antagonist potency against DPDPE: δ agonist DPDPE; for Ke in the MVD assay, antagonist potency against [D-Ala2]deltorphin I: δ agonist [D-Ala2]deltorphin I; for Ke in the MVD assay, antagonist potency against [Leu5]enkephalin: δ agonist [Leu5]enkephalin
T1 construct: Bioassays Using Isolated Organ Preparations; from tissue; host or cells: isolated mouse vas deferens
Protocol: (§1) a) Bioassays based on inhibition of electrically evoked contractions of the mouse vas deferens (MVD) and of the guinea pig ileum (GPI). In the GPI assay the opioid effect is primarily mediated by μ opioid receptors, whereas in the MVD assay the inhibition of the contractions is mostly due to interaction with δ opioid receptors.
(§2) The GPI and MVD bioassays were carried out as reported in P. W. Schiller et al., Biochem. Biophys. Res. Commun 85, 1332-1338 (1978) and J. Di Maio et al., J. Med. Chem. 25, 1432-1438 (1982). A log dose-response curve was determined with [Leu^5 ] enkephalin as standard for each ileum and vas preparation, and IC50 values of the compounds being tested were normalized according to A. A. Waterfield et al., Eur. J. Pharmacol. 58, 11-18 (1979). Ke values for the cyclic β-casomorphin analogs with mixed μ agonist/δ antagonist properties (δ antagonist effect) were determined from the ratio of IC50 values (DR) obtained in the presence and absence of a fixed antagonist concentration (a) (Ke =a/(DR-1)) H. W. Kosterlitz & A. J. Watt, Br. J. Pharmacol. 33, 266-276 (1968). These determinations were made with the MVD assay, using three different δ-selective agonists ([Leu^5 ]enkephalin, DPDPE and [D-Ala^2]deltorphin I].

μ opioid receptors = μ opioid receptors (Cavia porcellus, UniProt P97266); assay: GPI assay: inhibition of electrically evoked contractions of the guinea pig ileum; type: cell-based; conditions: means of 3-6 determinations ± SEM, normalized to [Leu5]enkephalin standard, read-out: IC50 in the GPI assay (agonist potency)
Protocol: as §1, §2

δ opioid receptor = biological target: T2, δ opioid receptor (Rattus norvegicus, UniProt P33533); assay: δ opioid receptor binding, displacement of δ-selective radioligand from rat brain membranes; conditions: for Ki^δ/Ki^μ (selectivity for μ versus δ receptors): ratio of binding constants; for Ki: δ-selective radioligand 1.0 nM, Cheng-Prusoff, means of three determinations ± SEM
T2 construct: from tissue; host or cells: rat brain membranes (cerebellum removed), Sprague-Dawley
Source text: (§3) In the case of κ-ligands guinea pig brain homogenates were used, since the relative proportion of κ-binding sites is higher in guinea pig brain than in rat brain. The experimental procedure being used in our laboratory represents a modified version of the binding assay described by Paternak et al. (Mol. Pharmacol. 11 340-351, (1975)). Male Sprague-Dawley rats (300-350 g) from the Canadian Breeding Laboratories were decapitated and after removal of the cerebellum the brains were homogenized in 30 volumes of ice-cold standard buffer (50 mM Tris-HCl, pH 7.7). After centrifugation at 30,000×g for 30 min at 4° C. the membranes were reconstituted in the original volume of standard buffer and incubated for 30 min at 37° C. (to release bound endogenous ligands). […] The incubation was terminated by filtration through Whatman GF/B filters under vacuum at 4° C. Following two washings with 5 ml portions of ice-cold standard buffer the filters were transferred to scintillation vials and treated with 1 ml Protosol (New England Nuclear) for 30 min prior to the addition of 0.5 ml acetic acid and 10 ml Aquasol (New England Nuclear). After shaking for 30 min the vials were counted at an efficiency of 40-45%. All experiments were performed in duplicates and repeated at least three times. Specific binding of each of the three radioglands was defmed by performing incubations in the presence of cold DAMGO, DSLET and U69,563, respectively, at a concentration of 1 micromolar. Values of half-maximal inhibition (IC50) of specific binding were obtained graphically from semilogarithmic plots. From the measured IC50-values, binding inhibition constants (Ki) were then calculated based on Cheng and Prussoff's equation (Biochem. Pharmacol. 22, 3099-3102 (1973)). Ratios of the Ki -values in the μ-, δ- and κ-representative bindning assays are a measure of the receptor selectivity of the compound under investigation (e.g. Ki^δ/ Ki^μ indicated the selectivity for μ-receptors versus δ-receptors).

μ opioid receptor = biological target: T3, μ opioid receptor (Rattus norvegicus, UniProt P33535); assay: μ opioid receptor binding, displacement of [3H]DAMGO from rat brain membranes; conditions: [3H]DAMGO 0.7 nM, Cheng-Prusoff, means of three determinations ± SEM
T3 construct: from tissue; host or cells: rat brain membranes (cerebellum removed), Sprague-Dawley
Source text: as §3

T1 sequence (P32300 whole entry): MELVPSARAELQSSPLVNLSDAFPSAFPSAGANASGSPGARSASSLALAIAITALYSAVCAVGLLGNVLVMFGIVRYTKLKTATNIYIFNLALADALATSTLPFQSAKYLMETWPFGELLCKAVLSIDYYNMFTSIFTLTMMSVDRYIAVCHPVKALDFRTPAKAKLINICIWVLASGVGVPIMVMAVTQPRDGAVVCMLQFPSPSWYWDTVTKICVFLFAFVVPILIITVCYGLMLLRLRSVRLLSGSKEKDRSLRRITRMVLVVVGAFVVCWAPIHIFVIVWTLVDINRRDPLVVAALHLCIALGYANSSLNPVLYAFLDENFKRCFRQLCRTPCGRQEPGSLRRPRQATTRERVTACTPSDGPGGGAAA
T2 sequence (P33533 whole entry): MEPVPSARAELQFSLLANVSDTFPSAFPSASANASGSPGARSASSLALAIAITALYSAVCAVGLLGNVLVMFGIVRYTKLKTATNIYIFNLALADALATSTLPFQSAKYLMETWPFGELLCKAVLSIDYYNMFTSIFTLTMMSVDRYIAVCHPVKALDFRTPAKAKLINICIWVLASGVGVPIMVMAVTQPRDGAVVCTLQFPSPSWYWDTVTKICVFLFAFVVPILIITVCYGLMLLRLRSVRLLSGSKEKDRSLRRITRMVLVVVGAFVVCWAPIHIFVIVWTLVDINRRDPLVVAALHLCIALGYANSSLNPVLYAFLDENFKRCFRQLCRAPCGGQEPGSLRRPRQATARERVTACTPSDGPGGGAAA
Chain of μ opioid receptors (P97266 whole entry, looked up): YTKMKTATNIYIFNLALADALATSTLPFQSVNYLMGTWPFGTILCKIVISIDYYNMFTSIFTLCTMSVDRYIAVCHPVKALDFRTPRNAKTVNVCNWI
T3 sequence (P33535 whole entry): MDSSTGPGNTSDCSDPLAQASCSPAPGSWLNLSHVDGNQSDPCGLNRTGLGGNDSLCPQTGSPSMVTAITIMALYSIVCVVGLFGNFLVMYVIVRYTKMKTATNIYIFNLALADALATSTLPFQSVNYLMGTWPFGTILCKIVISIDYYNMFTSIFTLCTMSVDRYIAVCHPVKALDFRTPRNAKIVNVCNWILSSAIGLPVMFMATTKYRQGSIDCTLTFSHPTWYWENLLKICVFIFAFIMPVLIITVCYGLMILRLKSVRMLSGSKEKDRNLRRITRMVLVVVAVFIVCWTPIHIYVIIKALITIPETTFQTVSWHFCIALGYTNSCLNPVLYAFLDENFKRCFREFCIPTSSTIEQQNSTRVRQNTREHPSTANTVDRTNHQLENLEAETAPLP

Row | SMILES | Ke in the MVD assay, antagonist potency against DPDPE (δ opioid receptors) | IC50 (μ opioid receptors) [nM] | Ke in the MVD assay, antagonist potency against [D-Ala2]deltorphin I (δ opioid receptors) | Ke in the MVD assay, antagonist potency against [Leu5]enkephalin (δ opioid receptors) | Ki^δ/Ki^μ (selectivity for μ versus δ receptors) (δ opioid receptor) | Ki (δ opioid receptor) [nM] | Ki (μ opioid receptor) [nM]
1 | Cc1cc(O)cc(C)c1C[C@H](N)C(=O)N[C@@H]1CCCNC(=O)CN(C)C(=O)[C@H]2CCCN2C(=O)[C@H](Cc2ccc3ccccc3c2)NC1=O [Example 4, H-Dmt-c[-D-Orn-2-Nal-D-Pro-Sar-]] (H-[Dmt][dOrn][2Nal][dP][Sar]; lactam 2-C) | 16.4 | 14.5 | – | – | – | – | –
2 | Cc1cc(O)cc(C)c1C[C@H](N)C(=O)N[C@@H]1CCCNC(=O)CNC(=O)[C@H]2CCCN2C(=O)[C@H](Cc2ccc3ccccc3c2)NC1=O [Example 3, H-Dmt-c[-D-Orn-2-Nal-D-Pro-Gly-]] (H-[Dmt][dOrn][2Nal][dP]G; lactam 2-C) | 2.13 ± 0.51 | 7.88 | 3.37 ± 0.59 | 3.74 ± 1.00 | 0.993 | 0.457 ± 0.022 | 0.46 ± 0.022
3 | CN1CC(=O)NCCC[C@@H](NC(=O)[C@@H](N)Cc2ccc(O)cc2)C(=O)N[C@@H](Cc2ccc3ccccc3c2)C(=O)N2CCC[C@@H]2C1=O [Example 2, H-Tyr-c[-D-Orn-2-Nal-D-Pro-Sar-]] (HELM PEPTIDE1{Y.[O=C([C@@H](CCCN[*:3])N[*:1])[*:2]].[O=C([C@H](Cc1ccc2ccccc2c1)N[*:1])[*:2]].[dP].[Sar]}$PEPTIDE1,PEPTIDE1,2:R3-5:R2$$$V2.0) | 11.2 ± 2.1 | 159 | 7.81 ± 1.90 | 17.0 ± 3.60 | 0.163 | 2.41 ± 0.34 | 14.8 ± 0.7
4 | C[C@H]1NC(=O)[C@H]2CCCN2C(=O)[C@H](Cc2ccc3ccccc3c2)NC(=O)[C@H](NC(=O)[C@@H](N)Cc2ccc(O)cc2)CCCNC1=O [Example 5, H-Tyr-c[-D-Orn-2-Nal-D-Pro-D-Ala-]] (HELM PEPTIDE1{Y.[O=C([C@@H](CCCN[*:3])N[*:1])[*:2]].[O=C([C@H](Cc1ccc2ccccc2c1)N[*:1])[*:2]].[dP].[dA]}$PEPTIDE1,PEPTIDE1,2:R3-5:R2$$$V2.0) | 5.35 ± 0.42 | 600 | 5.99 ± 1.30 | – | 0.0105 | 0.755 ± 0.125 | 72 ± 22
5 | CN[C@@H](Cc1ccc(O)cc1)C(=O)N[C@@H]1CCCNC(=O)CNC(=O)[C@H]2CCCN2C(=O)[C@H](Cc2ccc3ccccc3c2)NC1=O [Example 1, Tyr(NMe)-c[-D-Orn-2-Nal-D-Pro-Gly-]] (HELM PEPTIDE1{[meY].[O=C([C@@H](CCCN[*:3])N[*:1])[*:2]].[O=C([C@H](Cc1ccc2ccccc2c1)N[*:1])[*:2]].[dP].G}$PEPTIDE1,PEPTIDE1,2:R3-5:R2$$$V2.0) | 45.9 ± 2.8 | 92.5 | 38.8 ± 5.9 | 30.8 ± 1.5 | 0.765 | 1.3 ± 0.19 | 1.7 ± 0.15
6 | CC[C@@H](C)[C@H]1NC(=O)[C@H]2CCCN2C(=O)[C@H](Cc2ccc3ccccc3c2)NC(=O)[C@H](NC(=O)[C@@H](N)Cc2ccc(O)cc2)CCCNC1=O [Example 9, H-Tyr-c[-D-Orn-2-Nal-D-Pro-D-Ile-]] (HELM PEPTIDE1{Y.[O=C([C@@H](CCCN[*:3])N[*:1])[*:2]].[O=C([C@H](Cc1ccc2ccccc2c1)N[*:1])[*:2]].[dP].[dI]}$PEPTIDE1,PEPTIDE1,2:R3-5:R2$$$V2.0) | 4.88 ± 0.94 | 815 | 7.63 ± 1.48 | – | – | – | –
7 | N[C@@H](Cc1ccc(O)cc1)C(=O)N[C@@H]1CCCNC(=O)CNC(=O)[C@H]2CCCN2C(=O)[C@H](Cc2ccc3ccccc3c2)NC1=O [H-Tyr-c[-D-Orn-2-Nal-D-Pro-Gly-], reference compound] (HELM PEPTIDE1{Y.[O=C([C@@H](CCCN[*:3])N[*:1])[*:2]].[O=C([C@H](Cc1ccc2ccccc2c1)N[*:1])[*:2]].[dP].G}$PEPTIDE1,PEPTIDE1,2:R3-5:R2$$$V2.0) | 233 ± 28 | 384 | 202 ± 24 | 268 ± 22 | 2.92 | 17.2 ± 4.9 | 5.89 ± 1.6
8 | CN1C(=O)[C@H]2CCCN2C(=O)[C@H](Cc2ccc3ccccc3c2)NC(=O)[C@H](NC(=O)[C@@H](N)Cc2ccc(O)cc2)CCCNC(=O)C1(C)C [Example 7, H-Tyr-c[-D-Orn-2-Nal-D-Pro-MeAib-]] (H-Y[dOrn][2Nal][dP][NMeAib]; lactam 2-C) | 370 ± 48 | 228 | 480 ± 84 | – | 0.366 | 10.7 ± 5.5 | 29.2 ± 5.2
9 | Cc1cc(O)cc(C)c1C[C@H](N)C(=O)N[C@@H]1CCCNC(=O)[C@@H](C)NC(=O)[C@H]2CCCN2C(=O)[C@H](Cc2ccc3ccccc3c2)NC1=O [Example 10, H-Dmt-c[-D-Orn-2-Nal-D-Pro-D-Ala-]] (H-[Dmt][dOrn][2Nal][dP][dA]; lactam 2-C) | 0.577 ± 0.022 | 10.4 | 0.319 ± 0.091 | – | – | – | –
10 | N[C@@H](Cc1ccc(O)cc1)C(=O)N[C@@H]1CCCCNC(=O)CNC(=O)[C@H]2CCCN2C(=O)[C@H](Cc2ccc3ccccc3c2)NC1=O [H-Tyr-c[-D-Lys-2-Nal-D-Pro-Gly-], reference compound] (HELM PEPTIDE1{Y.[dK].[O=C([C@H](Cc1ccc2ccccc2c1)N[*:1])[*:2]].[dP].G}$PEPTIDE1,PEPTIDE1,2:R3-5:R2$$$V2.0) | 305 ± 52 | 609 | 305 ± 52 | 603 ± 174 | 3.66 | 62.6 ± 13.2 | 17.1 ± 2.6
11 | CC(C)[C@H]1NC(=O)[C@H]2CCCN2C(=O)[C@H](Cc2ccc3ccccc3c2)NC(=O)[C@H](NC(=O)[C@@H](N)Cc2ccc(O)cc2)CCCNC1=O [Example 8, H-Tyr-c[-D-Orn-2-Nal-D-Pro-D-Val-]] (HELM PEPTIDE1{Y.[O=C([C@@H](CCCN[*:3])N[*:1])[*:2]].[O=C([C@H](Cc1ccc2ccccc2c1)N[*:1])[*:2]].[dP].[dV]}$PEPTIDE1,PEPTIDE1,2:R3-5:R2$$$V2.0) | 20.9 ± 1.5 | 536 | 26.1 ± 2.8 | – | – | – | –
12 | CC1(C)NC(=O)[C@H]2CCCN2C(=O)[C@H](Cc2ccc3ccccc3c2)NC(=O)[C@H](NC(=O)[C@@H](N)Cc2ccc(O)cc2)CCCNC1=O [Example 6, H-Tyr-c[-D-Orn-2-Nal-D-Pro-Aib-]] (HELM PEPTIDE1{Y.[O=C([C@@H](CCCN[*:3])N[*:1])[*:2]].[O=C([C@H](Cc1ccc2ccccc2c1)N[*:1])[*:2]].[dP].[Aib]}$PEPTIDE1,PEPTIDE1,2:R3-5:R2$$$V2.0) | 31.6 ± 2.9 | 451 | 55.8 ± 3.8 | – | – | – | –
